We go through eight compounds from patent US11292796B2 (SIGNAL PHARMACEUTICALS, LLC, priority 2008, dated 2022).

A word on the IC50: it is the concentration at which inhibition is half-maximal.

For the test, the target named is T1, mTOR (Homo sapiens, UniProt P42345).
T1 construct: purchased Invitrogen PR8683A
Briefly: mTOR HTR-FRET assay. The note with it: read-out: Act. Level (IC50 in mTor HTR-FRET assay). Format: biochemical. In a few lines:
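Test compounds, taken from 10 mM DMSO stocks and diluted, were mixed with mTOR enzyme (0.200 μg/mL) in Tris buffer pH 7.4 with 100 mM NaCl, 0.1% Tween-20 and 1 mM DTT. ATP/substrate addition initiated the reaction, alongside compound-free controls.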

T1 sequence (P42345 1360-2549 limits assumed): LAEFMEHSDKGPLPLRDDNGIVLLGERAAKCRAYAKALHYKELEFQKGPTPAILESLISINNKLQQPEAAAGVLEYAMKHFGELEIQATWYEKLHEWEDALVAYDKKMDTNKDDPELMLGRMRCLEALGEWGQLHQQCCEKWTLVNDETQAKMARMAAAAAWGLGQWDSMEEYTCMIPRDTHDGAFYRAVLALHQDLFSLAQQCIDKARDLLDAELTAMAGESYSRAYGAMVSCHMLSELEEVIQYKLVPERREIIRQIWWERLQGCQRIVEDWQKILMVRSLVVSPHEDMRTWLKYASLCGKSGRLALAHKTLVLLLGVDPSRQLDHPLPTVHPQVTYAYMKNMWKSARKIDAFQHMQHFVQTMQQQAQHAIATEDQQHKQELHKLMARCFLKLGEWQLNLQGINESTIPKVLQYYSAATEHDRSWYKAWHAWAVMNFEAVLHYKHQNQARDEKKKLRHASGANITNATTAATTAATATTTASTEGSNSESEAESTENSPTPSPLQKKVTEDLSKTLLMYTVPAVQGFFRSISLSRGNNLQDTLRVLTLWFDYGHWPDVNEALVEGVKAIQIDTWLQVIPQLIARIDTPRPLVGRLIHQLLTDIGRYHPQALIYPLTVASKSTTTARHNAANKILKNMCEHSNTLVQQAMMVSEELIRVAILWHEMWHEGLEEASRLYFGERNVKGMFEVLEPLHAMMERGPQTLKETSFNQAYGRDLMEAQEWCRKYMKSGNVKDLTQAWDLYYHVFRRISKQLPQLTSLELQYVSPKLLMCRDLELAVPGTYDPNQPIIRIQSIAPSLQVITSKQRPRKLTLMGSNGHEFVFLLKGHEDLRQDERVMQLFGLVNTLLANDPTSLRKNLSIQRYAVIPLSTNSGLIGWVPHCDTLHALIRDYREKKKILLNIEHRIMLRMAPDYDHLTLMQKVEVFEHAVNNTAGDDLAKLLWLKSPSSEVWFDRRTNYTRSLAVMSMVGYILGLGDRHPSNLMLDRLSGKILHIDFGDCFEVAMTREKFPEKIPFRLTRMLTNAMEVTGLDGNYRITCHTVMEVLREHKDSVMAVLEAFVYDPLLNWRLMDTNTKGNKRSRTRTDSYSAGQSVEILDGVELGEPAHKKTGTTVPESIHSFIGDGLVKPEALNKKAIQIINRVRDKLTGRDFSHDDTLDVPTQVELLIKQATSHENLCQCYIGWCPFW

On to `COCCCN1C(=O)CNc2ncc(-c3ccc(C(C)(C)O)nc3)nc21` [Example 259, 7-(6-(2-hydroxypropan-2-yl)pyridin-3-yl)-1-(3-methoxypropyl)-3,4-dihydropyrazino[2,3-b]pyrazin-2(1H)-one], for which the 50% inhibitory concentration (IC50) lay within 0.005 to 250 nM. With `Cc1cc(-c2nc[nH]n2)ncc1-c1cnc2c(n1)N(CCC1CCOCC1)C(=O)CN2` [Example 260, 7-(4-methyl-6-(1H-1,2,4-triazol-3-yl)pyridin-3-yl)-1-(2-(tetrahydro-2H-pyran-4-yl)ethyl)-3,4-dihydropyrazino[2,3-b]pyrazin-2(1H)-one], the IC50 was 0.005 to 250 nM.

`CNc1nc2c(C)cc(-c3cnc4c(n3)N(CC3CCOCC3)C(=O)CN4)cc2[nH]1` [Example 263, 7-(4-methyl-2-(methylamino)-1H-benzo[d]imidazol-6-yl)-1-((tetrahydro-2H-pyran-4-yl)methyl)-3,4-dihydropyrazino[2,3-b]pyrazin-2(1H)-one]: the IC50 lay in the range of 0.005 to 250 nM. On to `Cc1cc(-c2cnc3c(n2)N(CC2CCOCC2)C(=O)CN3)cc2[nH]c(N)nc12` [Example 264, 7-(2-amino-4-methyl-1H-benzo[d]imidazol-6-yl)-1-((tetrahydro-2H-pyran-4-yl)methyl)-3,4-dihydropyrazino[2,3-b]pyrazin-2(1H)-one], for which the IC50 is 0.005 to 250 nM. On to `C[C@H]1Nc2ncc(-c3ccc(C(C)(C)O)nc3)nc2N(CCC2CCOCC2)C1=O` [Example 266, (R)-7-(6-(2-hydroxypropan-2-yl)pyridin-3-yl)-3-methyl-1-(2-(tetrahydro-2H-pyran-4-yl)ethyl)-3,4-dihydropyrazino[2,3-b]pyrazin-2(1H)-one], for which the half-maximal inhibitory concentration (IC50) fell in the range of 500 to 1000 nM.

In the case of `C[C@@H]1Nc2ncc(-c3ccc(C(C)(C)O)nc3)nc2N(CCC2CCOCC2)C1=O` [Example 267, (S)-7-(6-(2-hydroxypropan-2-yl)pyridin-3-yl)-3-methyl-1-(2-(tetrahydro-2H-pyran-4-yl)ethyl)-3,4-dihydropyrazino[2,3-b]pyrazin-2(1H)-one], the IC50 fell in the range of 500 to 1000 nM.

Regarding `Cc1cc(-c2cnc3c(n2)N(CCC2CCOCC2)C(=O)CN3)cc2[nH]c(N)nc12` [Example 269, 7-(2-amino-4-methyl-1H-benzo[d]imidazol-6-yl)-1-(2-(tetrahydro-2H-pyran-4-yl)ethyl)-3,4-dihydropyrazino[2,3-b]pyrazin-2(1H)-one], the IC50 lay within 0.005 to 250 nM. For `Cc1nc(-c2nc[nH]n2)ccc1-c1cnc2c(n1)N(CCO)C(=O)CN2` [Example 274, 1-(2-hydroxyethyl)-7-(2-methyl-6-(1H-1,2,4-triazol-3-yl)pyridin-3-yl)-3,4-dihydropyrazino[2,3-b]pyrazin-2(1H)-one], the IC50 is 0.005 to 250 nM.
